Data reported in US8937048B2, “Anti-angiogenic compounds” (Covx Technologies Ireland, Limited, priority 2008, dated 2015).
Where a SMILES comes first, the peptide text is derived from it. Bridges are numbered along the chain shown (N, C = ends).

Target: T1, recombinant human VEGF165 (Homo sapiens, UniProt P15692)
T1 sequence (P15692 27-191 isoform P15692-4): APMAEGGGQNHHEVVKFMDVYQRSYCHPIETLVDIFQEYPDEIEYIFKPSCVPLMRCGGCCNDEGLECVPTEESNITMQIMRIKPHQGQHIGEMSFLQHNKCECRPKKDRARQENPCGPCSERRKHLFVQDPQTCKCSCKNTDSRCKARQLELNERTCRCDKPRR
Assay: VEGF peptide binding assay (competition ELISA, VEGF165 binding to coated VEGFR2/Fc)
Description: High-binding half-well 96-well plates (Costar #3690) were coated with recombinant human VEGFR2/Fc (50 ng/well) in 50 μl PBS, and incubated at 4° C. overnight. After washing the plates three times with 1× washing buffer (KPL Cat#50-65-00) and blocking with Superblock (Scytek #AAA500) at room temperature (RT) for 1 hour, VEGF-peptides of the invention were serially diluted (concentrations: 0.128-10,000 nM) in the presence of 25 ng/ml of recombinant human VEGF165 in […] Superblock, and were then added to the 96-well plates and incubated at RT for 1 hour. Peptides of the invention tested in this fashion were all capped at the amino terminus with a C(O)CH3 group and at the carboxyl terminus with a NH2 group. The plates were then washed three times with washing buffer, and a diluted (1:500) biotinylated anti-human VEGF antibody (R&D systems, Cat# BAF293) was added and incubated at RT for 2 hours. After washing the plates, streptavidin HRP conjugate (1:200 in Superblock) (R&D systems, Cat# DY998) was added to detect the bound anti-VEGF antibody, followed by addition of tetramethylbenzidine (TMB) substrate (Pierce, Cat#34021) for color development. The reaction was stopped with 2 M H2SO4. OD450 was measured using SpectraMax (Molecular Device) with a correction wavelength of 540 nm. The data were analyzed using Prism software. OD450 values were plotted as a function of the concentrations of the VEGF peptides. IC50 values, indicative of the potency of the VEGF peptides to inhibit VEGF-VEGFR2 interaction, were obtained using a sigmoid dose-response curve fit in Prism.

| Compound | IC50 [nM] |
| --- | --- |
| CC[C@H](C)[C@@H]1NC(=O)[C@H](CC(=O)O)NC(=O)[C@@H](NC(=O)[C@H](CC(N)=O)NC(=O)[C@@H]2CCCN2C(=O)[C@H](CCC(=O)O)NC(=O)[C@@H](NC(C)=O)C(C)C)CSSC[C@@H](C(=O)N[C@@H](Cc2ccccc2)C(=O)N[C@@H](CCC(=O)O)C(=O)N[C@@H](CCCNC(=N)N)C(=O)N[C@@H](CC(C)C)C(=O)N[C@@H](Cc2ccc(O)cc2)C(=O)NCC(=O)NCC(=O)NCC(N)=O)NC(=O)[C@H](C(C)C)NC(=O)[C@H](Cc2c[nH]c3ccccc23)NC(=O)[C@H](C(C)C)NC(=O)[C@H](Cc2c[nH]c3ccccc23)NC(=O)[C@H](CCSC)NC(=O)[C@H](C(C)C)NC(=O)[C@H](Cc2c[nH]cn2)NC1=O [Compound 43, VEPNCDIHVMWVWVCFERLYGGG] (Ac-VEPNCDIHVMWVWVCFERLYGGG-NH2; disulfide 5-15) | 66 |
| CC[C@H](C)[C@@H]1NC(=O)[C@H](CC(=O)O)NC(=O)[C@@H](NC(=O)[C@H](CC(N)=O)NC(=O)[C@@H]2CCCN2C(=O)[C@H](CCC(=O)O)NC(=O)[C@@H](NC(C)=O)C(C)C)CSSC[C@@H](C(=O)N[C@@H](Cc2ccccc2)C(=O)N[C@@H](CCC(=O)O)C(=O)N[C@@H](CCCNC(=N)N)C(=O)N[C@@H](CC(C)C)C(=O)N[C@@H](Cc2ccc(O)cc2)C(=O)NCC(=O)N[C@@H](CC(C)C)C(=O)N[C@@H](Cc2ccc(O)cc2)C(N)=O)NC(=O)[C@H](CCC(=O)O)NC(=O)[C@H](Cc2c[nH]c3ccccc23)NC(=O)[C@H](C(C)C)NC(=O)[C@H](Cc2c[nH]c3ccccc23)NC(=O)[C@H](CCSC)NC(=O)[C@H](C(C)C)NC(=O)[C@H](Cc2c[nH]cn2)NC1=O [Compound 44, VEPNCDIHVMWVWECFERLYGLY] (Ac-VEPNCDIHVMWVWECFERLYGLY-NH2; disulfide 5-15 (inferred)) | 54.6 |
| CC[C@H](C)[C@@H]1NC(=O)[C@H](CC(=O)O)NC(=O)[C@@H](NC(=O)[C@H](CC(N)=O)NC(=O)[C@@H]2CCCN2C(=O)[C@H](CCC(=O)O)NC(=O)[C@@H](NC(C)=O)C(C)C)CSSC[C@@H](C(=O)N[C@@H](Cc2ccccc2)C(=O)N[C@@H](CCC(=O)O)C(=O)N[C@@H](CCCNC(=N)N)C(=O)N[C@@H](CC(C)C)C(=O)N[C@@H](CO)C(=O)NCC(=O)NCC(=O)NCC(N)=O)NC(=O)[C@H](CCC(=O)O)NC(=O)[C@H](Cc2c[nH]c3ccccc23)NC(=O)[C@H](C(C)C)NC(=O)[C@H](Cc2c[nH]c3ccccc23)NC(=O)[C@H](CCSC)NC(=O)[C@H](C(C)C)NC(=O)[C@H](Cc2c[nH]cn2)NC1=O [Compound 45, VEPNCDIHVMWVWECFERLSGGG] (Ac-VEPNCDIHVMWVWECFERLSGGG-NH2; disulfide 5-15 (inferred)) | 51 |
| CC[C@H](C)[C@@H]1NC(=O)[C@H](CC(=O)O)NC(=O)[C@@H](NC(=O)[C@H](CC(N)=O)NC(=O)[C@@H]2CCCN2C(=O)[C@H](CCC(=O)O)NC(=O)[C@@H](NC(C)=O)C(C)C)CSSC[C@@H](C(=O)N[C@@H](Cc2ccccc2)C(=O)N[C@@H](CCC(=O)O)C(=O)N[C@@H](CCCNC(=N)N)C(=O)N[C@@H](CC(C)C)C(=O)N[C@@H](CCSC)C(=O)N[C@@H](CCCNC(=N)N)C(=O)N[C@@H](CC(C)C)C(=O)N[C@H](C(N)=O)[C@@H](C)O)NC(=O)[C@H](CCC(=O)O)NC(=O)[C@H](Cc2c[nH]c3ccccc23)NC(=O)[C@H](C(C)C)NC(=O)[C@H](Cc2c[nH]c3ccccc23)NC(=O)[C@H](CCSC)NC(=O)[C@H](C(C)C)NC(=O)[C@H](Cc2c[nH]cn2)NC1=O [Compound 46, VEPNCDIHVMWVWECFERLMRLT] (Ac-VEPNCDIHVMWVWECFERLMRLT-NH2; disulfide 5-15 (inferred)) | 44.1 |
